Measurements as given in US20230203081A1, “LINCOSAMIDE ANTIBIOTICS AND USES THEREOF” (President and Fellows of Harvard College, priority 2020, published 2023).

Legend:
[1] = tested on: susceptible S. aureus and E. faecium strains; experiment: Time-kill studies; assay type: cell-based
Protocol: . Experiments were performed in duplicate following CLSI guidelines. An inoculum was prepared in Mueller-Hinton broth (MHB) containing 0.5-5×10^6 CFU/mL of test organism. Cultures were incubated at 37° C. in a shaker incubator at 110 rpm; a flask containing bacteria left unexposed to antibiotic was used as untreated control. At time points 0, 1, 3, 6, and 24 h following administration of antibiotic, bacterial counts were determined from each flask by serial dilution and plating on brain heart infusion agar (BD, Sparks, M D). Plates were incubated at 37° C. in incubators for 18-24 hours to determine bacterial counts. For streptococcal strains, blood agar plates (Tryptic Soy Agar with 5% Sheep Blood) were used for culturing the organisms (plates were incubated in the presence of 5% CO2), and time-kill studies were performed in media supplemented with 5% laked horse blood.

[2] = Plasma protein binding, species m; assay type: in vitro ADME; settings: mouse
HepG2 = experiment: Mitochondrial ToxGlo assay; assay type: cell-based, human
Protocol: (§1) Mammalian cell experiments: All compounds were dissolved in sterile DMSO to a stock concentration of 20 μM and aliquoted prior to freezing at −20° C. Aliquots were limited to a maximum of 3 freeze-thaw cycles. A549 (human pulmonary carcinoma; […]) cells were cultured in Dulbecco's Modified Eagle Medium (DMEM) supplemented with 10% fetal bovine serum. K562 (human chronic myelogenous leukemia; […]) cells were cultured in Iscove's Modification of DMEM (IMDM) media supplemented with 10% fetal bovine serum. HCT116 (human colorectal carcinoma; […]) cells were cultured in McCoy's 5a (Iwakata & Grace Modification) media supplemented with 10% fetal bovine serum. HepG2 (human hepatocellular carcinoma; […]) cells were cultured in Eagle's Minimum Essential Medium (EMEM) supplemented with 10% fetal bovine serum. All cell cultures were maintained in a 5% CO2 incubator at 37° C.
Mitochondrial toxicity assays were conducted using the Promega Mitochondrial ToxGlo assay, pursuant to the manufacturer's protocol.

[3] = Mammalian cell growth inhibition (CellTiter-Blue cell viability assay); assay type: cell-based, human; settings: human, A549, K562, HCT116 and HepG2 cells; mammalian cells, 72 h
Protocol: as §1
(§2) Growth inhibition was studied using the Promega CellTiter-Blue cell viability assay pursuant to the manufacturer's protocol. Briefly, cells were harvested, diluted, and mixed with the desired concentration of test compound. […] Plates were read on a SpectraMax i3 plate reader. GI50 values were determined by nonlinear regression using GraphPad Prism and represent the mean of at least three independent experiments.

[4] = tested on: mammalian cells (A549, K562, HCT116, HepG2); experiment: as above; assay type: cell-based, human; settings: cell-culture safety profiling; result in words
Protocol: as §1, §2

## CSC1O[C@H]([C@H](NC(=O)[C@H]2NC[C@@H]3C[C@H](CC(C)C)CCO[C@H]32)[C@H](C)Cl)C(O)[C@@H](O)[C@H]1O (stereo partly shown) [FSA-513018b]
[1]; certain highly susceptible strains
  cidality in time-kill: concentration-dependent cidality
[1]; result in words
  mode of action in broth culture profiling (time-kill): bacteriostatic
[2]
  fraction unbound: 0.05
HepG2; HepG2, Mitochondrial ToxGlo
  effect on membrane integrity: no effect
HepG2; HepG2, Mitochondrial ToxGlo (ATP production)
  effect on mitochondrial function: no effect
[3]
  GI50 at 72 h: > 50 µM
[4]
  toxicity toward mammalian cells: non-toxic
